In PubChem BioAssay AID651670 (Sanford-Burnham Center for Chemical Genomics, 2012):
The source made the active and inactive calls.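 How the source made its calls: active means IC50 at or below 20 µM; inactive means the rest.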

Biological target: Fatty acid synthase (Homo sapiens) (UniProt P49327)
Test: FAS thioesterase domain inhibitors, SAR follow-up, biochemical, endpoint fluorescence intensity, analogs (AID 651670)
Settings: recombinant FAS-TE, OMFH fluorogenic substrate

Fatty acid synthase (Homo sapiens), sequence (P49327 whole entry, looked up, the tested form may be a part): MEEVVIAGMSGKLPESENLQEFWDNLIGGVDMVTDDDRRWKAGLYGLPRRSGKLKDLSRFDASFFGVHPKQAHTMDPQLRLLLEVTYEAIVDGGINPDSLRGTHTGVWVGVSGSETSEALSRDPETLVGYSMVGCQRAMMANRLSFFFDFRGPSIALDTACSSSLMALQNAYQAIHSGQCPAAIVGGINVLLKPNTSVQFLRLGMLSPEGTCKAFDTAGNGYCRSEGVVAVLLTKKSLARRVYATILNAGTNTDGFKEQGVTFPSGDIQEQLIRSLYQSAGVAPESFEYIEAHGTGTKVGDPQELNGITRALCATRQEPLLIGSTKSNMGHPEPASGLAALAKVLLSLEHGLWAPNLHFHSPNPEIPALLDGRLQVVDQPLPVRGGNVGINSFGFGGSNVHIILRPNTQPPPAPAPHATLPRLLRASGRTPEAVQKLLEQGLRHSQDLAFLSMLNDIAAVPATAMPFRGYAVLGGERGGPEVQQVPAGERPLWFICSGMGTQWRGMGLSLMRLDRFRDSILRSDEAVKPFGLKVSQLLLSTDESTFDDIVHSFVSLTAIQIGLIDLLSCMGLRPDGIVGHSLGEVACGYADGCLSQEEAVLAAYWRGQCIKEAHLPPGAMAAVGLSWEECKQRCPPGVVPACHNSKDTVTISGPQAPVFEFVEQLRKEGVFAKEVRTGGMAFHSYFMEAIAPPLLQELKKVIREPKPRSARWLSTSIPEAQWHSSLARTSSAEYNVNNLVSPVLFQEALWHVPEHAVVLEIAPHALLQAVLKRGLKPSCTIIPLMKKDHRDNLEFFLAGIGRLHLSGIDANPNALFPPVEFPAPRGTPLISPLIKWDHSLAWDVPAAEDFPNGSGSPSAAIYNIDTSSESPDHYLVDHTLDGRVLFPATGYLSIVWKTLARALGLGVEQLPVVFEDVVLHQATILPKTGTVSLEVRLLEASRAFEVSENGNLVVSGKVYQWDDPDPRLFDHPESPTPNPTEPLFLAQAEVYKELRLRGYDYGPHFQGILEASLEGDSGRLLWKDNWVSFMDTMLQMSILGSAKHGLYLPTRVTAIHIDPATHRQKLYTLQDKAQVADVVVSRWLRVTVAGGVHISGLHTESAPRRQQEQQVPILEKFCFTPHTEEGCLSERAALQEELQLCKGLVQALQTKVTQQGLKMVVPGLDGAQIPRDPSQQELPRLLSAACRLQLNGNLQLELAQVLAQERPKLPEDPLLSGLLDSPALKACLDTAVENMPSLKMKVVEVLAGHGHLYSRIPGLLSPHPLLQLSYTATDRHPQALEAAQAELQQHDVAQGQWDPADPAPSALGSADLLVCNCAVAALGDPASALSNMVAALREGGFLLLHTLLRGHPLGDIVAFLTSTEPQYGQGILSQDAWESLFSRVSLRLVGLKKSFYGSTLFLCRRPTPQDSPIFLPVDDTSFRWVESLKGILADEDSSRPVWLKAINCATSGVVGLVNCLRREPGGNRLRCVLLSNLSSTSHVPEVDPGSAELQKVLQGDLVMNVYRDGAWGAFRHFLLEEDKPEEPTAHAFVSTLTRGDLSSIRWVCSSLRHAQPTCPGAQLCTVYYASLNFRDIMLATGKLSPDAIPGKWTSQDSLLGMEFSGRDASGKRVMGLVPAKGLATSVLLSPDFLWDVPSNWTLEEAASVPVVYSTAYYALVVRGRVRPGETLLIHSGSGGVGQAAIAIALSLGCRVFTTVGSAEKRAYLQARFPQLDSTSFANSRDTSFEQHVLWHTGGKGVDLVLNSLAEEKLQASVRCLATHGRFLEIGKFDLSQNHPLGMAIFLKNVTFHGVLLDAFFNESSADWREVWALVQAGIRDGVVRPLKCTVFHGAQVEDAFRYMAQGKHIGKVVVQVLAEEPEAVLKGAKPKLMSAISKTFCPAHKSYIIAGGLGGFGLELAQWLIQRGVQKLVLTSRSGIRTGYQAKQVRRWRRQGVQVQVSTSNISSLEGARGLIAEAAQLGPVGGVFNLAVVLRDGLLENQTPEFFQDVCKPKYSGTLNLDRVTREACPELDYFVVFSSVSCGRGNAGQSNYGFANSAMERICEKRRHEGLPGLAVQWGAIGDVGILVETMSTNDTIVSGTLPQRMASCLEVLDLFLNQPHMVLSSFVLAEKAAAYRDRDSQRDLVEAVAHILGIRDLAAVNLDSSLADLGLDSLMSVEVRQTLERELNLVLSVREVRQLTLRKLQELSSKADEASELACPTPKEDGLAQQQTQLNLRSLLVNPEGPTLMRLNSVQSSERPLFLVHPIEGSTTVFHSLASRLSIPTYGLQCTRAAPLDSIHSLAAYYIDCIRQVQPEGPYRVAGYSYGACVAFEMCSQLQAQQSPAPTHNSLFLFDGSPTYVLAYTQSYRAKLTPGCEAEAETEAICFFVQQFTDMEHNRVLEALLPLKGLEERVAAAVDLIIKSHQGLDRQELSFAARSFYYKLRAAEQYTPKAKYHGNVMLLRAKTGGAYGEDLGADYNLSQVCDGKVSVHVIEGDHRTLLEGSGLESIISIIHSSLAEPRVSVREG

Work on `CCc1ccc(CN(C)C(=O)Cc2ccc(S(=O)(=O)N3CCCC3)s2)cc1` yielded an IC50 of 12.9 µM.

`O=C(Nc1nc(-c2ccc(S(=O)(=O)N3CCOCC3)cc2)cs1)c1ccco1` was tested, and the IC50 was “inactive”.

In the case of `CCCn1c(SCC(=O)Nc2ncc(C(F)(F)F)cc2Cl)nnc1-c1ccncc1`, the IC50 is reported as “inactive”.

With `Cc1nnc(SCC(=O)Nc2ncc(C(F)(F)F)cc2Cl)n1-c1ccccc1` the IC50 was > 80 µM (inactive).

With `COc1ccc(CN(C)C(=O)Cc2ccc(S(=O)(=O)N3CCOCC3)s2)cc1OC` the IC50 was > 80 µM (inactive).

`COc1ccc(-c2nnc(SCC(=O)Nc3ncc(C(F)(F)F)cc3Cl)n2C)cc1` gave an IC50 of 1.96 µM.

In the case of `CN(Cc1cccc(F)c1)C(=O)Cc1ccc(S(=O)(=O)N2CCOCC2)s1`, the IC50 is reported as > 80 µM (inactive).

In the case of `O=C(Nc1nc(-c2ccc(S(=O)(=O)N3CCOCC3)cc2)cs1)c1cccs1`, the IC50 is reported as “inactive”.

`Cn1c(SCC(=O)Nc2ccccc2)nnc1-c1ccc(Cl)cc1` was tested, and the IC50 was > 80 µM (inactive).

With `CCCCn1c(SCC(=O)Nc2ncc(C(F)(F)F)cc2Cl)nnc1-c1ccc(OC)cc1` the IC50 was 0.67 µM.

`Cc1ccccc1NC(=O)CSc1nnc(-c2ccc(Cl)cc2)n1C` was tested, and the IC50 was > 80 µM (inactive).

`O=S(=O)(c1ccc(-c2csc(N3CCCC3)n2)cc1)N1CCOCC1` gave an IC50 of 0.948 µM.

In the case of `Cn1c(SCC(=O)Nc2cccc(Cl)c2)nnc1-c1ccc(Cl)cc1`, the IC50 is reported as > 80 µM (inactive).

`Cc1ccc(NC(=O)Cc2nc(-c3ccc(S(=O)(=O)N4CCOCC4)cc3)cs2)cc1` was tested, and the IC50 was > 80 µM (inactive).

Compound `Cn1c(SCC(=O)Nc2ncc(C(F)(F)F)cc2Cl)nnc1-c1ccc(F)cc1` has an IC50 of 8.27 µM.

With `O=S(=O)(c1ccc(-c2csc(Cc3ccccc3)n2)cc1)N1CCOCC1` the IC50 was 0.664 µM.

In the case of `Cn1c(Cc2ccccc2)nnc1SCC(=O)Nc1ncc(C(F)(F)F)cc1Cl`, the IC50 is reported as “inactive”.

`CC(=O)Nc1nc(-c2ccc(S(=O)(=O)N3CCOCC3)cc2)cs1` was tested, and the IC50 was 15.3 µM.

For `CCn1c(SCC(=O)Nc2ncc(C(F)(F)F)cc2Cl)nnc1-c1ccncc1`, the IC50 was “inactive”.
